Experimental data taken from article PMC4608362, “The therapeutic effect of chlorogenic acid against Staphylococcus aureus infection through sortase A inhibition” (Frontiers in Microbiology, 2015).

Experiments:
Conditions in all cases: read-out: Binding constants KA (1 × 10^5) L⋅mol^-1 (converted)
[1] = target: T1, Sortase A (SrtA) (Staphylococcus aureus, UniProt Q2FV99, C184A); assay: fluorescence spectroscopy quenching with purified mutant, binding constant KA, n = […]
T1 construct: SrtAΔN59 (residues 60–206)

[2] = target: T2, Sortase A (SrtA) (Staphylococcus aureus, UniProt Q2FV99, G192A); assay: as above
T2 construct: SrtAΔN59 (residues 60–206)

[3] = target: T3, Sortase A (SrtA) (Staphylococcus aureus, UniProt Q2FV99); assay: fluorescence spectroscopy quenching, binding constant KA, n = […]; also FRET inhibition of purified SrtAΔN59 (IC50 […])
T3 construct: SrtAΔN59 (residues 60–206)

## O=C(/C=C/c1ccc(O)c(O)c1)O[C@@H]1C[C@](O)(C(=O)O)C[C@@H](O)[C@H]1O [CHA, chlorogenic acid]
[1]
  Kd: 2.13 µM
[2]
  Kd: 2 µM
[3]
  Kd: 1.12 µM
